For 2 molecules, Ki and Km results are on record in article PMC2982120 (2010).

Series [1] deals with T1, Jen1p (Saccharomyces cerevisiae, UniProt P36035).
T1 sequence (P36035 2-616): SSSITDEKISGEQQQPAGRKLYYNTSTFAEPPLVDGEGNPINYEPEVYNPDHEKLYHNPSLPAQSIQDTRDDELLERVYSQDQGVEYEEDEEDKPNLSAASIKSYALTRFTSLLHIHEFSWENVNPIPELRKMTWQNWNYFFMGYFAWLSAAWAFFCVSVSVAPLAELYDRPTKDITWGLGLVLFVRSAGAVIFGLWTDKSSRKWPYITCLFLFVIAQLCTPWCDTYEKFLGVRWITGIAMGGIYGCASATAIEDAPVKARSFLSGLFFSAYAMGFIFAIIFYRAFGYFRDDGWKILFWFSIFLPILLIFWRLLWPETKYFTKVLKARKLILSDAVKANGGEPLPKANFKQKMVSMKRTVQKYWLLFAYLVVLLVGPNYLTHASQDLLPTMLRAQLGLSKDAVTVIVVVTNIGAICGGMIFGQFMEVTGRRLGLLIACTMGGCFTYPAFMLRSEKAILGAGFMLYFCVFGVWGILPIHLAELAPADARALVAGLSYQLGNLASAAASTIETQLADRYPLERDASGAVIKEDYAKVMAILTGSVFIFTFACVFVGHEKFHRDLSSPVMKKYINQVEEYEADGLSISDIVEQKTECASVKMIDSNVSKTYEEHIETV
Kind of series: […]-lactate uptake in Jen1p-overexpressing yeast. The format is cell-based.

Substrate in series [2]: O=[Se](O)O
Put plainly: selenite uptake. The format is cell-based, Saccharomyces cerevisiae. Particulars: competitive with lactate.

Molecule `CC(O)C(=O)O` (centres unmarked) [lactate] returned a Ki in series [1] of 900 µM.

B1: Jen1p (Saccharomyces cerevisiae S288C) (protein)
chain: SSSITDEKISGEQQQPAGRKLYYNTSTFAEPPLVDGEGNPINYEPEVYNPDHEKLYHNPSLPAQSIQDTRDDELLERVYSQDQGVEYEEDEEDKPNLSAASIKSYALTRFTSLLHIHEFSWENVNPIPELRKMTWQNWNYFFMGYFAWLSAAWAFFCVSVSVAPLAELYDRPTKDITWGLGLVLFVRSAGAVIFGLWTDKSSRKWPYITCLFLFVIAQLCTPWCDTYEKFLGVRWITGIAMGGIYGCASATAIEDAPVKARSFLSGLFFSAYAMGFIFAIIFYRAFGYFRDDGWKILFWFSIFLPILLIFWRLLWPETKYFTKVLKARKLILSDAVKANGGEPLPKANFKQKMVSMKRTVQKYWLLFAYLVVLLVGPNYLTHASQDLLPTMLRAQLGLSKDAVTVIVVVTNIGAICGGMIFGQFMEVTGRRLGLLIACTMGGCFTYPAFMLRSEKAILGAGFMLYFCVFGVWGILPIHLAELAPADARALVAGLSYQLGNLASAAASTIETQLADRYPLERDASGAVIKEDYAKVMAILTGSVFIFTFACVFVGHEKFHRDLSSPVMKKYINQVEEYEADGLSISDIVEQKTECASVKMIDSNVSKTYEEHIETV
Take B1: the Michaelis-Menten constant (Km) in series [2] is recorded as 0.91 ± 0.13 mM.
